biological target: T1, Neutrophil elastase enzyme (HNE) (Homo sapiens, UniProt P08246); assay: Neutrophil elastase inhibitor activity; type: biochemical; conditions: read-out: Degree of HNE inhibition (Mean)
T1 sequence (P08246 30-267): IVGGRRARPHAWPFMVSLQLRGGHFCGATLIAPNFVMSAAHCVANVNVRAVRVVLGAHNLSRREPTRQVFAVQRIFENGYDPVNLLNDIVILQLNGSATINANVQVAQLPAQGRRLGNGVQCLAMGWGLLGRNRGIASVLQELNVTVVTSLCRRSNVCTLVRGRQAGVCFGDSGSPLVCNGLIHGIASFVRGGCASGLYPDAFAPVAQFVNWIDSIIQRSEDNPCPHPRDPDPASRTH

inhibition at 0.1 µM [%]	inhibition at 1 µM [%]	inhibition at 10 µM [%]	inhibition at 50 µM [%]	inhibition at 100 µM [%]	Structure (SMILES)
12	16.7	24.6	25.8	26.7	O=C(CC1C(=O)c2ccccc2C1=O)NNC(=S)N=Cc1cccc([N+](=O)[O-])c1 [IDC7, 2-(2-(1,3-Dioxo-2,3-dihydro-1H-inden-2-yl)acetyl)-N-(3-nitrobenzylidene)hydrazine-1-carbothioamide]
16.3	18.9	21.5	24.8	28.8	NC(=S)NNC(=O)CC1C(=O)c2ccccc2C1=O [IDC2, 2-(2-(1,3-Dioxo-2,3-dihydro-1H-inden-2-yl)acetyl)hydrazine-1-carbothioamide]
96.2	98.5	98.6	98.5	99.8	CC(C)(C)C(=O)Oc1ccc(S(=O)(=O)Nc2ccccc2C(=O)NCC(=O)O)cc1 [Sivelestat, reference compound]
18.6	21.6	28.7	30.1	36.5	NNC(=O)CC1C(=O)c2ccccc2C1=O [IDH1, 2-(1,3-Dioxo-2,3-dihydro-1H-inden-2-yl)acetohydrazide]

— paper PMC10107027 (RSC Advances, 2023)
